The values that follow come from PubChem BioAssay AID1361 (SRMLSC, 2008).

Activity calls are given as the source filed them. How the calls were made is not given here.

This assay can be described thus: blockers of mitochondrial fusion, WT vs mutant – cell-based, chemical genetic, wild-type and mutant, confirmation (AID 1361). To be noted: Cell-based mitochondrial fusion phenotype, imaging.
The mark [1] stands for this setting: mutant cells, measured here: mutant cell line IC50.

As usually defined, the IC50 is the concentration that gives 50% inhibition. Take `CN(C)C(=O)CSc1nnc(CCCCCNC(=O)OC(C)(C)C)o1`: the IC50 was > 25 µM (inactive) (WT cells) and above 25 µM under setting [1].
Consider `COc1cc(/C=C2\SC(=O)N(c3ccccc3Cl)C2=O)cc([N+](=O)[O-])c1O`, for which the IC50 runs as follows: (WT cells) 13.6 µM; under setting [1], 20.8 µM.
`COC(=O)C1=C(O)C(C(=O)OC)C(c2ccc(C)cc2)C(C#N)(C#N)C1c1ccc(C)cc1` (stereo not drawn): the IC50 is 4.71 µM (WT cells) and above 25 µM under setting [1].
Regarding `O=C(O)C1C2C=CC(C2)C1C(=O)Nc1ccc(C(=O)N2CCCCC2)cc1` (stereo not drawn), the IC50 (WT cells) is > 25 µM (inactive) and the IC50 under setting [1] was above 25 µM.
Take `Cc1ccc(-c2nc(N)sc2-c2ccc(C)cc2)cc1`: the IC50 is 9.96 µM (inactive) (WT cells) and 9.46 µM under setting [1].
As for `O=c1ccccn1Cc1c(Cl)cccc1Cl`, the IC50 is > 25 µM (inactive) (WT cells) and above 25 µM under setting [1].
For the molecule `Cc1ccc(NC(=O)C2(c3ccccc3)CC2(Cl)Cl)cc1C` (stereo not drawn), the IC50 reads like this: (WT cells) > 25 µM (inactive); under setting [1], above 25 µM.
Take `CC(C)(C)c1ccc(S(=O)(=O)Nc2ccc(Cc3ccncc3)cc2)cc1`: the half-maximal inhibitory concentration (IC50) is, setting by setting: (WT cells) 23.3 µM; under setting [1], above 25 µM.
The corresponding values for `COc1ccc(CN(C)C2c3ccccc3-c3ccccc32)cc1` are 16.7 µM and 17 µM.
The corresponding values for `COc1ccc(NC(=S)NCCC(c2ccccc2)c2ccccc2)c(OC)c1` are 7.67 µM and above 25 µM.
As to `Cc1nc(N2CCC(C)CC2)c2c(C)c(C(=O)Nc3cc(F)ccc3C)sc2n1`, the IC50 (WT cells) is 19.7 µM and the IC50 under setting [1] is above 25 µM.
In the case of `COc1ccc(NC(=O)CN(c2ccc(C)cc2)S(C)(=O)=O)c(OC)c1`, the IC50 (WT cells) is > 25 µM (inactive) and the half-maximal inhibitory concentration (IC50) under setting [1] is above 25 µM.
`CC(C)(C)Nc1nc(SCc2ccccc2)nc(N2CCOCC2)n1`: the 50% inhibitory concentration (IC50) was 17.3 µM (WT cells) and above 25 µM under setting [1].
With `CCC(C)n1c(SCc2ccccc2)nc2ccsc2c1=O` (stereo not drawn), the IC50 by setting is: (WT cells) 22.9 µM; under setting [1], above 25 µM.
In the case of `Cc1cc(=O)n2[nH]c(-c3ccc(F)cc3)cc2n1`, the IC50 by setting is: (WT cells) > 25 µM (inactive); under setting [1], above 25 µM.
As for `Cc1csc(NC(=O)c2c(O)c3c(n(CC(C)C)c2=O)CCCC3)n1`, the half-maximal inhibitory concentration (IC50) by setting is: (WT cells) 14.7 µM; under setting [1], above 25 µM.
The like results for `CC1(C(=O)N(Cc2ccccc2)Cc2ccccc2)CC1(Br)Br` (stereo not drawn) were, in that order, 15.7 µM and above 25 µM.
With `CCCC(NC(=S)NCC1CCCO1)C12CC3CC(CC(C3)C1)C2` (stereo not drawn), the IC50 runs as follows: (WT cells) 7.52 µM; under setting [1], above 25 µM.
The corresponding values for `C/C(N)=C(/C#N)C(=O)CSc1nnnn1-c1ccccc1` are > 25 µM (inactive) and above 25 µM.
As to `CCOC(=O)C1=NN(c2ccccc2)C2=NC(C)=C(C(=O)OC)C(c3ccc(C)cc3)N12` (stereo not drawn), the half-maximal inhibitory concentration (IC50) is 8.75 µM (WT cells) and above 25 µM under setting [1].
The corresponding values for `CC(C)(C)[C@@H]1C=C(C(=O)N2CCN(Cc3ccccc3)CC2)O[C@H](OCc2ccc(CO)cc2)C1` are 23.8 µM and above 25 µM.
Turning to `O=c1oc(Nc2cccc(F)c2)nc2ccccc12`, the IC50 is > 25 µM (inactive) (WT cells) and above 25 µM under setting [1].
The like results for `COc1ccc(/C=C/C(=O)c2ccc(O)cc2)cc1COc1ccc(F)cc1` were, in that order, 11.9 µM and above 25 µM.
Regarding `Cc1ccc(N(CC(O)Cn2c3ccccc3c3ccccc32)S(C)(=O)=O)c(C)c1` (stereo not drawn), the IC50 was 18.8 µM (WT cells) and above 25 µM under setting [1].
With `O=C(N/N=C/c1cccc(O)c1)c1ccc(COc2ccccc2Br)cc1`, the IC50 by setting is: (WT cells) 18.8 µM; under setting [1], above 25 µM.
The like results for `Cc1ccccc1C(=O)Oc1ccc(Sc2ccc(O)cc2)cc1` were, in that order, 8.72 µM and above 25 µM.
Turning to `COC(=O)CN(c1ccc2c(c1)OCCO2)S(=O)(=O)c1ccccc1`, the IC50 (WT cells) was > 25 µM (inactive) and the IC50 under setting [1] was above 25 µM.
Turning to `CCn1c(CNC(=O)c2ccco2)nnc1SCC(=O)Nc1cc(C(F)(F)F)ccc1Cl`, the IC50 by setting is: (WT cells) > 25 µM (inactive); under setting [1], above 25 µM.
The like results for `COc1ccc(-c2cn[nH]c2-c2ccc(OCc3ccc([N+](=O)[O-])cc3)cc2O)cc1` were, in that order, 10 µM and above 25 µM.
Regarding `Cc1ccc(-n2cccc2/C=C2\C(=N)N3N=C(C(C)C)SC3=NC2=O)cc1`, the IC50 is, setting by setting: (WT cells) 10.6 µM; under setting [1], above 25 µM.
Regarding `CCc1ccccc1N(CC)C(=O)CCc1nc(-c2ccc(C)cc2)no1`, the IC50 (WT cells) is 19.6 µM and the IC50 under setting [1] was 23.2 µM.
The like results for `COc1ccc(OC)c2c(N)c(C#N)c(C(F)(F)C(F)(F)F)nc12` were, in that order, > 25 µM (inactive) and above 25 µM.
As to `S=C(Nc1ccccc1Oc1ccccc1)Nc1cccc(Cl)c1Cl`, the concentration for half-maximal inhibition (IC50) is 12.6 µM (WT cells) and 22.4 µM under setting [1].
The corresponding values for `Cc1cc(N2CCN(C(c3ccccc3)c3ccc(Cl)cc3)CC2)n2ncnc2n1` (stereo not drawn) are 13.7 µM and 22.3 µM.
For the molecule `COc1ccc(NC(=S)NNC(=O)COc2ccc(Cl)cc2Cl)cc1`, the IC50 (WT cells) was 19.5 µM and the concentration for half-maximal inhibition (IC50) under setting [1] was above 25 µM.
In the case of `Cc1coc(C)c1C(=O)CC1(O)C(=O)Nc2cc(Cl)cc(Cl)c21` (stereo not drawn), the IC50 is > 25 µM (inactive) (WT cells) and above 25 µM under setting [1].
As for `CCCC[C@@H]1C[C@H]1[C@@H](NC(=O)c1ccco1)c1ccc(Cl)cc1`, the half-maximal inhibitory concentration (IC50) runs as follows: (WT cells) 21.4 µM; under setting [1], above 25 µM.
The corresponding values for `CC(C)(C)n1nnnc1C(c1cccnc1)N(Cc1ccccc1)Cc1cccs1` (stereo not drawn) are 9.97 µM and above 25 µM.
The corresponding values for `CCCCSc1cnn(-c2ccccc2)c(=O)c1SCCCC` are 12.7 µM and above 25 µM.
The corresponding values for `CC1CCCN(c2nc(-c3cccnc3)nc3scc(-c4ccccc4)c23)C1` (stereo not drawn) are 11.8 µM and above 25 µM.
For the molecule `Cc1cc(C)nc(N2CCCC(C(=O)NCc3cccs3)C2)n1` (stereo not drawn), the IC50 (WT cells) was > 25 µM (inactive) and the IC50 under setting [1] was above 25 µM.
On to `COc1ccc(CC(=O)N2CCOCC2)cc1OC`, for which the IC50 is > 25 µM (inactive) (WT cells) and above 25 µM under setting [1].
Regarding `CC1CCc2nc(NC(=O)CN3CCN(c4ccc(F)cc4)CC3)sc2C1` (stereo not drawn), the IC50 by setting is: (WT cells) > 25 µM (inactive); under setting [1], 15.9 µM.
The like results for `Oc1ccc(/C=N/Nc2nc(N3CCCCCC3)nc(N3CCCCCC3)n2)c(O)c1` were, in that order, 9.5 µM and above 25 µM.
As for `O=c1c2ccccc2n(Cc2ccc(F)cc2)c(=O)n1C1CCCC1`, the IC50 by setting is: (WT cells) 17 µM; under setting [1], above 25 µM.
The like results for `O=C(NCCCN1CCOCC1)c1ccccc1-c1ccccc1` were, in that order, > 25 µM (inactive) and above 25 µM.
The like results for `Cc1cc(N=Cc2cc(Cl)ccc2O)no1` were, in that order, > 25 µM (inactive) and above 25 µM.
For the molecule `N#Cc1ccccc1Sc1ccccc1C(=O)Nc1ccc(Br)cc1`, the IC50 is, setting by setting: (WT cells) > 25 µM (inactive); under setting [1], above 25 µM.
With `CC1(C)CC(=O)C(C=Nc2ccc3[nH]ncc3c2)=C(O)C1`, the IC50 by setting is: (WT cells) > 25 µM (inactive); under setting [1], above 25 µM.
Turning to `CCCCOC(=O)c1ccc(NC(=O)c2ccccc2OC)cc1`, the IC50 is > 25 µM (inactive) (WT cells) and above 25 µM under setting [1].
With `CCOc1ccccc1N1CCN(C(=S)NC(=O)C23CC4CC(CC(C4)C2)C3)CC1`, the concentration for half-maximal inhibition (IC50) is, setting by setting: (WT cells) 19.5 µM; under setting [1], 22.5 µM.
On to `C(=N\Nc1nc(Nc2ccccc2)nc(N2CCCCC2)n1)/c1ccco1`, for which the IC50 (WT cells) was 22.5 µM and the half-inhibitory concentration (IC50) under setting [1] is above 25 µM.
Take `CCCCN(CCCC)C1=Nc2ccccc2N/C1=C(/C#N)C(=O)OCC`: the IC50 was 6.94 µM (WT cells) and above 25 µM under setting [1].
For `O=C(CNC(=S)N(Cc1ccccc1)Cc1ccccc1F)NCCc1ccc(Cl)cc1`, the IC50 runs as follows: (WT cells) 4.01 µM; under setting [1], above 25 µM.
Turning to `Cc1ccc(NC(=S)N(CCCN2CCCC2)Cc2cccn2Cc2ccc(Cl)cc2)cc1`, the IC50 (WT cells) is 14.4 µM and the half-maximal inhibitory concentration (IC50) under setting [1] was above 25 µM.
`COc1ccccc1CNC(=O)c1ccc(-c2ccccc2C(F)(F)F)o1`: the half-inhibitory concentration (IC50) is 21.3 µM (WT cells) and above 25 µM under setting [1].
Regarding `CCc1ccccc1NC(=S)N=Nc1c(O)n(C)c2ccc(S(=O)(=O)N3CCOCC3)cc12`, the half-inhibitory concentration (IC50) runs as follows: (WT cells) 1.37 µM; under setting [1], 9.5 µM.
As for `COc1ccc(Cn2nc(-c3ccccc3)c(N3CCCCC3)cc2=O)cc1`, the IC50 is 10.3 µM (WT cells) and above 25 µM under setting [1].
The like results for `CC1CCc2c(sc(NC(=O)COC(=O)c3ccc(O)cc3)c2C#N)C1` (stereo not drawn) were, in that order, > 25 µM (inactive) and above 25 µM.
Take `CC(Sc1ccc(Cl)cc1)C(=O)Nc1ccccc1-c1ccccc1` (stereo not drawn): the IC50 was 13 µM (WT cells) and above 25 µM under setting [1].
Turning to `O=c1cc(N2CCCCC2)c(-c2ccccc2)nn1Cc1c(Cl)cccc1Cl`, the IC50 (WT cells) is 5.39 µM and the IC50 under setting [1] is above 25 µM.
For the molecule `CCCCC(c1nnnn1CC1CCCO1)N1CCN(c2cc(Cl)ccc2C)CC1` (stereo not drawn), the IC50 is 21.6 µM (WT cells) and above 25 µM under setting [1].
The corresponding values for `CC1(C)C=C2[C@H]3CC[C@@H]4[C@@]5(C)CCC(=O)C(C)(C)[C@@H]5CC[C@@]4(C)[C@]3(C)CC[C@@]2(C(=O)O)CC1` are 21.9 µM and above 25 µM.
With `COCCN(C(=S)Nc1ccc(C(C)C)cc1)C(C)c1cccs1` (stereo not drawn), the IC50 was > 25 µM (inactive) (WT cells) and above 25 µM under setting [1].
Take `CCc1nnc(NC(=O)Nc2ccccc2OC)s1`: the IC50 (WT cells) is > 25 µM (inactive) and the IC50 under setting [1] is above 25 µM.
`Cc1cc(C(=O)Nn2c(C3CCCCC3)nc3ccccc3c2=O)ccc1[N+](=O)[O-]`: the IC50 runs as follows: (WT cells) 16.7 µM; under setting [1], above 25 µM.
Turning to `CC(=O)Cc1nsc(NC(=O)c2ccc(-c3cc(Cl)ccc3Cl)o2)n1`, the IC50 reads like this: (WT cells) > 25 µM (inactive); under setting [1], above 25 µM.
As to `c1ccc(-c2cn3c(n2)CCc2ccc4cccnc4c2-3)cc1`, the IC50 by setting is: (WT cells) 23.7 µM (inactive); under setting [1], 21.3 µM.
The corresponding values for `NC(=O)COC(=O)c1ccc(Cl)c(S(=O)(=O)N(Cc2ccccc2)c2ccc(Cl)cc2)c1` are 18.1 µM and above 25 µM.
